According to patent US8877748B2, “Heterocyclic fused anthraquinone derivatives, manufacturing method and pharmaceutical composition using thereof” (National Defense Medical Center, priority 2012, dated 2014):
Where two headings read alike, the source gives them in different places.

Legend:
[1] = tested on: HL-60, TB; test: NCI one-dose screening, leukemia HL-60, TB; assay type: cell-based, human; settings: HL-60(TB)
[2] = tested on: K562cell line; test: NCI one-dose screening, leukemia K562; assay type: cell-based, human; settings: K562, 10 μM
[3] = tested on: EKVX; test: NCI one-dose screening, non-small cell lung cancer EKVX; assay type: cell-based, human; settings: EKVX
[4] = tested on: NCI-H226; test: NCI one-dose screening, non-small cell lung cancer NCI-H226; assay type: cell-based, human; settings: NCI-H226, 10 μM
[5] = tested on: NCI-H23; test: NCI one-dose screening, non-small cell lung cancer NCI-H23; assay type: cell-based, human; settings: NCI-H23, 10 μM
[6] = tested on: NCI-H460; test: NCI one-dose screening, non-small cell lung cancer NCI-H460; assay type: cell-based, human; settings: NCI-H460, 10 μM
[7] = tested on: NCI-H522; test: NCI one-dose screening, non-small cell lung cancer NCI-H522; assay type: cell-based, human; settings: NCI-H522, 10 μM
[8] = tested on: A549/ATCC; test: NCI one-dose screening, non-small cell lung cancer A549/ATCC; assay type: cell-based, human; settings: A549/ATCC
[9] = tested on: COLO 205; test: NCI one-dose screening, colon cancer COLO 205; assay type: cell-based, human; settings: COLO 205, 10 μM
[10] = tested on: HCC-2998; test: NCI one-dose screening, colon cancer HCC-2998; assay type: cell-based, human; settings: HCC-2998, 10 μM
[11] = tested on: HCT-116; test: NCI one-dose screening, colon cancer HCT-116; assay type: cell-based, human; settings: HCT-116, 10 μM
[12] = tested on: HCT-15; test: NCI one-dose screening, colon cancer HCT-15; assay type: cell-based, human; settings: HCT-15, 10 μM
[13] = tested on: KM12; test: NCI one-dose screening, colon cancer KM12; assay type: cell-based, human; settings: KM12, 10 μM
[14] = tested on: HT29; test: NCI one-dose screening, colon cancer HT29; assay type: cell-based, human; settings: HT29, 10 μM
[15] = tested on: SF-268; test: NCI one-dose screening, CNS cancer SF-268; assay type: cell-based, human; settings: SF-268, 10 μM
[16] = tested on: SNB-19; test: NCI one-dose screening, CNS cancer SNB-19; assay type: cell-based, human; settings: SNB-19, 10 μM
[17] = tested on: SNB-75; test: NCI one-dose screening, CNS cancer SNB-75; assay type: cell-based, human; settings: SNB-75, 10 μM
[18] = tested on: U251; test: NCI one-dose screening, CNS cancer U251; assay type: cell-based, human; settings: U251, 10 μM
[19] = tested on: MALME-3M; test: NCI one-dose screening, melanoma MALME-3M; assay type: cell-based, human; settings: MALME-3M
[20] = tested on: M14; test: NCI one-dose screening, melanoma M14; assay type: cell-based, human; settings: M14, 10 μM
[21] = tested on: UACC-62; test: NCI one-dose screening, melanoma UACC-62; assay type: cell-based, human; settings: UACC-62, 10 μM
[22] = tested on: UACC-257; test: NCI one-dose screening, melanoma UACC-257; assay type: cell-based, human; settings: UACC-257, 10 μM
[23] = tested on: SK-MEL-2; test: NCI one-dose screening, melanoma SK-MEL-2; assay type: cell-based, human; settings: SK-MEL-2, 10 μM
[24] = tested on: SK-MEL-28; test: NCI one-dose screening, melanoma SK-MEL-28; assay type: cell-based, human; settings: SK-MEL-28, 10 μM
[25] = tested on: SK-MEL-5; test: NCI one-dose screening, melanoma SK-MEL-5; assay type: cell-based, human; settings: SK-MEL-5, 10 μM
[26] = tested on: IGROV1; test: NCI one-dose screening, ovarian cancer IGROV1; assay type: cell-based, human; settings: IGROV1, 10 μM
[27] = tested on: OVCAR-3; test: NCI one-dose screening, ovarian cancer OVCAR-3; assay type: cell-based, human; settings: OVCAR-3, 10 μM
[28] = tested on: OVCAR-4; test: NCI one-dose screening, ovarian cancer OVCAR-4; assay type: cell-based, human; settings: OVCAR-4, 10 μM
[29] = tested on: OVCAR-8; test: NCI one-dose screening, ovarian cancer OVCAR-8; assay type: cell-based, human; settings: OVCAR-8, 10 μM
[30] = tested on: 786-O; test: NCI one-dose screening, renal cancer 786-O; assay type: cell-based, human; settings: 786-0, 10 μM
[31] = tested on: CAKI-1; test: NCI one-dose screening, renal cancer CAKI-1; assay type: cell-based, human; settings: CAKI-1, 10 μM
[32] = tested on: ACHN; test: NCI one-dose screening, renal cancer ACHN; assay type: cell-based, human; settings: ACHN
[33] = tested on: SN12C; test: NCI one-dose screening, renal cancer SN12C; assay type: cell-based, human; settings: SN12C
[34] = tested on: TK-10; test: NCI one-dose screening, renal cancer TK-10; assay type: cell-based, human; settings: TK-10, 10 μM
[35] = tested on: RXF, 393; test: NCI one-dose screening, renal cancer RXF, 393; assay type: cell-based, human; settings: RXF 393, 10 μM
[36] = tested on: DU145; test: NCI one-dose screening, prostate cancer DU145; assay type: cell-based, human; settings: DU145, 10 μM
[37] = tested on: PC-3; test: NCI one-dose screening, prostate cancer PC-3; assay type: cell-based, human; settings: PC-3, 10 μM
[38] = tested on: MCF7; test: NCI one-dose screening, breast cancer MCF7; assay type: cell-based, human; settings: MCF7, 10 μM
[39] = tested on: HS 578-T; test: NCI one-dose screening, breast cancer HS 578-T; assay type: cell-based, human
[40] = tested on: MDA-MB-231/ATCC; test: NCI one-dose screening, breast cancer MDA-MB-231/ATCC; assay type: cell-based, human; settings: MDA-MB-231/ATCC
[41] = tested on: MDA-MB-468; test: NCI one-dose screening, breast cancer MDA-MB-468; assay type: cell-based, human; settings: MDA-MB-468, 10 μM
[42] = tested on: NCl/ADR-RES; test: NCI one-dose screening, breast cancer NCl/ADR-RES; assay type: cell-based, human; settings: Ovarian cancer, NCI/ADR-RES
[43] = tested on: MDA, -MB-435; test: NCI one-dose screening, breast cancer MDA, -MB-435; assay type: cell-based, human; settings: Melanoma, MDA-MB-435, 10 μM
[44] = tested on: human tumor cell lines; test: NCI one-dose screening, mean, delta and range of growth percent over all cell lines tested; assay type: cell-based; settings: for Growth Percent (10 μM), Delta: Delta over all cell lines tested; for Growth Percent (10 μM), Mean: Mean over all cell lines tested; for Growth Percent (10 μM), Range: Range over all cell lines tested

CN(C)CCNc1cc2c(c3nsnc13)C(=O)c1ccccc1C2=O [C8]
Growth Percent (10 μM) [1]: −10.38%
Growth Percent (10 μM) [2]: −24.44%
Growth Percent (10 μM) [3]: −25.35%
Growth Percent (10 μM) [4]: 69.78%
Growth Percent (10 μM) [5]: −43.43%
Growth Percent (10 μM) [6]: −38.31%
Growth Percent (10 μM) [7]: −91.81%
Growth Percent (10 μM) [8]: −60.09%
Growth Percent (10 μM) [9]: −99.38%
Growth Percent (10 μM) [10]: −86.18%
Growth Percent (10 μM) [11]: −2.07%
Growth Percent (10 μM) [12]: −60.44%
Growth Percent (10 μM) [13]: −21.66%
Growth Percent (10 μM) [14]: −45.50%
Growth Percent (10 μM) [15]: −14.54%
Growth Percent (10 μM) [16]: −77.31%
Growth Percent (10 μM) [17]: −73.34%
Growth Percent (10 μM) [18]: −55.42%
Growth Percent (10 μM) [19]: −85.22%
Growth Percent (10 μM) [20]: −96.08%
Growth Percent (10 μM) [21]: −47.85%
Growth Percent (10 μM) [22]: −88.80%
Growth Percent (10 μM) [23]: −66.52%
Growth Percent (10 μM) [24]: −50.60%
Growth Percent (10 μM) [25]: −98.79%
Growth Percent (10 μM) [26]: −28.40%
Growth Percent (10 μM) [27]: −38.62%
Growth Percent (10 μM) [28]: −71.27%
Growth Percent (10 μM) [29]: −28.91%
Growth Percent (10 μM) [30]: −14.05%
Growth Percent (10 μM) [31]: 6.88%
Growth Percent (10 μM) [32]: −22.86%
Growth Percent (10 μM) [33]: −95.78%
Growth Percent (10 μM) [34]: −35.59%
Growth Percent (10 μM) [35]: −59.58%
Growth Percent (10 μM) [36]: −95.45%
Growth Percent (10 μM) [37]: −18.35%
Growth Percent (10 μM) [38]: −49.41%
Growth Percent (10 μM) [39]: 4.32%
Growth Percent (10 μM) [40]: −2.96%
Growth Percent (10 μM) [41]: −62.81%
Growth Percent (10 μM) [42]: −23.20%
Growth Percent (10 μM) [43]: −58.82%
Growth Percent (10 μM), Delta [44]: 49.51%
Growth Percent (10 μM), Mean [44]: −49.52%
Growth Percent (10 μM), Range [44]: 112.33%

O=C1c2ccccc2C(=O)c2c1cc(N1CCCC1)c1nsnc21 [C7, 4-(pyrrolidine-1-yl)anthra-[2,1-c][1,2,5] thiadiazol-6,11-dione]
Growth Percent (10 μM) [1]: 104.58%
Growth Percent (10 μM) [2]: 75.50%
Growth Percent (10 μM) [3]: 75.67%
Growth Percent (10 μM) [4]: 78.66%
Growth Percent (10 μM) [5]: 59.74%
Growth Percent (10 μM) [6]: 89.11%
Growth Percent (10 μM) [7]: 83.41%
Growth Percent (10 μM) [8]: 63.51%
Growth Percent (10 μM) [9]: 82.13%
Growth Percent (10 μM) [10]: 104.58%
Growth Percent (10 μM) [11]: 78.67%
Growth Percent (10 μM) [12]: 61.25%
Growth Percent (10 μM) [13]: 95.18%
Growth Percent (10 μM) [14]: 98.60%
Growth Percent (10 μM) [15]: 98.43%
Growth Percent (10 μM) [16]: 90.45%
Growth Percent (10 μM) [17]: 94.52%
Growth Percent (10 μM) [18]: 80.49%
Growth Percent (10 μM) [19]: 70.73%
Growth Percent (10 μM) [20]: 94.61%
Growth Percent (10 μM) [21]: 95.64%
Growth Percent (10 μM) [22]: 84.14%
Growth Percent (10 μM) [23]: 115.43%
Growth Percent (10 μM) [24]: 99.46%
Growth Percent (10 μM) [25]: 31.12%
Growth Percent (10 μM) [26]: 75.83%
Growth Percent (10 μM) [27]: 86.97%
Growth Percent (10 μM) [28]: 77.50%
Growth Percent (10 μM) [29]: 82.12%
Growth Percent (10 μM) [30]: 96.67%
Growth Percent (10 μM) [31]: 70.65%
Growth Percent (10 μM) [32]: 82.97%
Growth Percent (10 μM) [33]: 89.82%
Growth Percent (10 μM) [34]: 141.01%
Growth Percent (10 μM) [35]: 97.02%
Growth Percent (10 μM) [36]: 105.08%
Growth Percent (10 μM) [37]: 71.01%
Growth Percent (10 μM) [38]: 59.71%
Growth Percent (10 μM) ([39]; Breast cancer, HS 578T, 10 μM): 101.62%
Growth Percent (10 μM) [40]: 95.23%
Growth Percent (10 μM) [41]: 84.32%
Growth Percent (10 μM) [42]: 86.36%
Growth Percent (10 μM) [43]: 105.87%
Growth Percent (10 μM), Delta [44]: 54.57%
Growth Percent (10 μM), Mean [44]: 85.69%
Growth Percent (10 μM), Range [44]: 109.89%
